The source made the active and inactive calls. The rule behind the calls is not given here.
What was measured:
[1] = tested on: REH; assay: Antiproliferative activity against human REH cells after 48 hrs by MTT assay; type: functional, cell-based
[2] = Antiproliferative activity against human NALM6 cells after 48 hrs by MTT assay; type: functional, cell-based; conditions: NALM-6, 48 h
[3] = tested on: Mus musculus; assay: Toxicity in mouse EAC allografted mouse assessed as effect on morphology and cellular construction of organs at 25 mg/kg; type: organism-based; conditions: in vivo
[4] = tested on: REH; assay: Cell cycle arrest in human REH cells assessed as accumulation at sub-G1 phase after 48 hrs using propidium iodide staining; type: functional, cell-based
[5] = tested on: Ehrlich; assay: Antitumor activity against mouse EAC cells allografted in mouse assessed as reduction of tumor volume at 25 mg/kg measured up to 14 days; type: functional, organism-based
[6] = tested on: Mus musculus; assay: Toxicity in mouse EAC allografted mouse assessed as effect on organs function at 25 mg/kg; type: organism-based; conditions: in vivo
[7] = Antiproliferative activity against human HEK293T cells after 48 hrs by MTT assay; type: cell-based; conditions: HEK-293T
[8] = tested on: Ehrlich; assay: Antitumor activity against mouse EAC cells allografted in mouse assessed as necrosis and innumerable number of apoptotic cells at 25 mg/kg measured up to 14 days; type: functional, organism-based
[9] = tested on: REH; assay: Induction of apoptosis in human REH cells assessed as decrease in mitochondrial membrane potential using green fluorescence of JC-1 dye after 48 hrs; type: functional, cell-based

SMILES: COc1ccc(N2C(=O)CSC2c2ccc(O)cc2)cc1OC (configuration not stated)
- IC50 [1]: 69.4 µM
- IC50 [2]: > 100 µM

SMILES: O=C1CSC2(CCCCC2)N1c1ccc(OC(F)F)cc1
- IC50 [1]: 41.4 µM
- IC50 [2]: > 100 µM

SMILES: Cc1ccccc1N1C(=O)CSC1c1ccc(C(F)(F)F)cc1 (configuration not stated)
- IC50 [1]: 29.6 µM
- IC50 [2]: 42.6 µM

SMILES: CN(C)c1ccc(C2SCC(=O)N2c2ccc(Br)cc2)cc1 (configuration not stated)
- Activity [3]: Non-toxic
- Activity [4]: Dose-dependent effect
- Activity [5]: Active
- IC50 [1]: 11.9 µM
- Activity [6]: Non-toxic
- IC50 [7]: > 80 µM
- IC50 [2]: 13.2 µM
- Activity [8]: Active
- Activity [9]: Dose-dependent effect

SMILES: CC1(c2ccccc2)SCC(=O)N1c1cc(Cl)cc(Cl)c1 (configuration not stated)
- IC50 [1]: > 100 µM
- IC50 [2]: > 100 µM

SMILES: COc1ccc(N2C(=O)CSC2c2cccnc2)cc1OC (configuration not stated)
- IC50 [1]: > 100 µM
- IC50 [2]: > 100 µM

SMILES: CC(C)(C)OC(=O)N1CCC(C2SCC(=O)N2c2ccc(N3CCN(C(=O)OC(C)(C)C)CC3)cn2)CC1 (configuration not stated)
- IC50 [1]: > 100 µM
- IC50 [2]: 82.9 µM

SMILES: COc1cccc(N2C(=O)CSC2c2ccc(F)cc2)c1 (configuration not stated)
- IC50 [1]: > 100 µM
- IC50 [2]: 49.8 µM

SMILES: O=C1CSC2(CCCC2)N1c1ncccn1
- IC50 [1]: > 100 µM
- IC50 [2]: > 100 µM

SMILES: COc1ccc(N2C(=O)CSC2c2ccccc2[N+](=O)[O-])cc1 (configuration not stated)
- IC50 [1]: > 100 µM
- IC50 [2]: 93.4 µM
